In ChEMBL document CHEMBL6182868, “Structural simplification of quaternary benzophenanthridine alkaloids generating a candidate for the treatment of non-small cell lung cancer” (Eur J Med Chem, 2025):
pIC50: −log10 of the molar value.

Assays:
[1] = tested on: HepG2; test: Cytotoxicity against human HepG2 cells incubated for 24 to 48 hrs by MTT assay; format: functional, cell-based
[2] = Inhibition of TrxR (unknown origin) incubated for 2 hrs in presence of NADPH by DTNB assay; design: species or system Homo sapiens
[3] = tested on: A549; test: Cytotoxicity against human A549 cells incubated for 24 to 48 hrs by MTT assay; format: functional, cell-based
[4] = tested on: HeLa; test: Cytotoxicity against human HeLa cells incubated for 24 to 48 hrs by MTT assay; format: functional, cell-based
[5] = Inhibition of TrxR in human A549 cells incubated for 24 hrs by endpoint insulin reduction assay; format: cell-based
[6] = organism: Homo sapiens; test: Inhibition of TrxR (unknown origin) assessed as remaining activity at 50 uM incubated for 2 hrs in presence of NADPH by DTNB assay relative to control

pIC50 [2] | pIC50 [5] | Activity [6] | Compound | pIC50 [1] | pIC50 [3] | pIC50 [4]
< 4.30 |  |  | COc1cc(OC)c2c(c1)ncc1ccccc12 | < 4.30 | < 4.30 | < 4.30
< 4.30 |  |  | COc1ccc2c(c1)c1ccccc1c[n+]2C | 4.71 | 4.75 | 4.71
< 4.30 |  |  | Cc1ccc2ncc3ccccc3c2c1 | < 4.30 | < 4.30 | < 4.30
 |  | 97% | CN1Cc2ccccc2-c2ccc3ccccc3c21 | < 4.30 | < 4.30 | < 4.30
 |  | 93% | c1ccc2c(c1)cnc1c3ccccc3ccc21 | < 4.30 | < 4.30 | < 4.30

The remaining lines, values behind:

Compound | pIC50 [2] | pIC50 [5] | Activity [6] | pIC50 [1] | pIC50 [3] | pIC50 [4]
COc1cc2c(c(OC)c1OC)c1ccccc1c[n+]2C | < 4.30 |  |  | 4.66 | 4.77 | 4.65
COc1cc2c[n+](C)c3c4cc5c(cc4ccc3c2cc1OC)OCO5 [NITIDINE CHLORIDE] | 4.42 | 4.92 |  | 5.74 | 5.40 | 5.77
COc1cc2ncc3ccccc3c2c(OC)c1OC | < 4.30 |  |  | < 4.30 | < 4.30 | < 4.30
COc1ccc2c(c[n+](C)c3c4cc5c(cc4ccc23)OCO5)c1OC [CHELERYTHRINE CHLORIDE] | 4.83 |  |  | 5.08 | 5.10 | 5.02
